Experimental data from US12595251B2, “Amidines and amidine analogs for the treatment of bacterial infections and potentiation antibiotics” (GEORGIA STATE UNIVERSITY RESEARCH FOUNDATION, INC., priority 2018, dated 2026).
Where a name gives a salt, the structure may show the parent alone. Read-outs that look alike come from different tables or passages of the source.

How the values were obtained:
E. coli = assay: Sensitization of E. coli to erythromycin (sensitization fold from IC90, OD600, 20 h); format: cell-based, Escherichia coli; details: general statement on amidine substitution or ring restraint
Procedure: E. coli bacteria were cultured in Miller's broth at 37° C. overnight prior to treatment. B. subtilis bacteria were cultured in nutrient broth at 37° C. overnight prior to treatment. […] Bacterial density was measured based on OD600.

B. subtilis = B. subtilis viability with antibiotic in absence or presence of compound (OD600, 20 h); format: cell-based, Bacillus subtilis; details: M-1 12.5 or 6 μM; A-2 6 or 12.5 μM; A-8; 20 h
Procedure: Bacterial viability was then determined by measuring density using OD600. […] B. subtilis was also cultured with either novobiocin or tetracycline at varying concentrations either in the absence or presence of compound M-1 (12.5 μM) for 20 hours. Bacterial viability was subsequently determined by measuring density using OD600.
Bacterial viability was then determined by measuring density using OD600.

wild type B. subtilis [1] = assay: Sensitization of B. subtilis toward antibiotics (MIC, OD600, 24 h); format: cell-based, Bacillus subtilis; details: compound at 10 μg/ml
Procedure: (§1) FIG. 22A is a bar graph showing that Compound M-1 sensitizes B. subtilis towards rifampicin as described in Example 13. Bacteria was cultured with rifampicin at various concentrations in the presence or absence of Compound M-1 for 24 hours at 37° C. and bacterial growth density was determined by measuring OD600. The y-axis is growth density measured in percent. The x-axis is rifampicin concentration measured in micrograms per milliliter (***: p<0.01).
Compound M-1 can sensitize Gram-positive bacteria such as B. subtilis towards traditional antibiotics. […] The sensitization fold is 32-fold for Compound M-1 and the FIC index is 0.14.

MRSA = assay: Sensitization of MRSA toward antibiotics (OD600, 24 h); format: cell-based, Staphylococcus aureus; details: for Sensitization fold, MRSA towards rifampicin: compound at 10 μg/ml
Procedure: as §1, with “Bacteria” for “FIG. 22A is a bar graph showing that Compound M-1 sensitizes B. subtilis towards rifampicin as described in Example 13. Bacteria”
Compound M-1 (2.7 μg/ml) sensitizes MRSA towards existing antibiotics such as rifampicin (32-fold) (FIG. 22B) and trovafloxacin (16-fold). Rifampicin is the first line of defense against MRSA and many MRSA stains grow resistance to rifampicin through overexpression of efflux pump and other mechanisms. Combined with Compound M-1, rifampicin can be used more effectively against MRSA.

wild type B. subtilis [2] = assay: Sensitization of B. subtilis toward antibiotics (MIC, OD600, 24 h); format: cell-based, Bacillus subtilis; details: compound at 5 μg/ml
[3] = Lipid A binding assay using Dansyl-PMBN displacement on E. coli; parameters: species or system Escherichia coli; details: 10 μM Dansyl-PMBN on E. coli, gradual addition of compound
Procedure: FIG. 21 is a graph describing the in vivo lipid A binding assay using Dansyl-PMBN as described in Example 11. Dansyl-PMBN (10 μM) was added to E. coli (OD600 measurement of about 0.5) and the fluorescent intensity at this time was recorded as F0. Sensitizers (Compound C, Compound E-20, and Polymyxin B) were added gradually and the fluorescent intensity was recorded 30 seconds later to determine the fluorescent intensity as a percent. The x-axis is concentration of the sensitizers measured in μM and the y-axis is the fluorescent intensity measured as a percent.
Lipid A is a key component of the outer membrane of Gram-negative bacteria and is responsible for maintaining its integrity of the outer membrane. The binding affinity of the compounds of the present invention to Lipid A was measured following literature procedures using a fluorescent conjugate of a polymyxin-B derivative (Dansyl-PMBN). Dansyl-PMBN binds to the lipid A part of LPS and leads to increased fluorescent intensity. […] When 10 μM of Dansyl-PMBN was added to E. coli stock (OD600 measurement around 0.5), the fluorescent intensity increased 10-fold.

wild-type E. coli = assay: Sensitization of wild-type E. coli toward antibiotics (MIC of antibiotic with/without sensitizer); format: cell-based, Escherichia coli; details: for MIC: Escherichia coli
Procedure: Bacteria were cultured with the antibiotic at various concentrations in the presence or absence of bacterial sensitizer for 24 hours at 37° C. Bacterial growth density was determined by measuring OD600 (absorbance measured at a wavelength of 600 nm). […]
The formula for calculating FIC is shown below: […]

[4] = test system: NDM-1 over-expressing E. coli; assay: microbe, parasite or virus in culture; format: cell-based, Escherichia coli
E. coli and MRSA = assay: Relative ratio of E. coli and MRSA under trovafloxacin with/without Compound A-8; format: cell-based, Escherichia coli; Staphylococcus aureus; details: trovafloxacin (16 ng/ml) alone
From the text: FIG. 23A is a comparison of the relative ratio of E. coli and MRSA treated with the antibiotic trovafloxacin in the absence (pie chart on the left) and in the presence (pie chart on the right) of Compound A-8 as described in Example 14. In the absence of Compound A-8, trovafloxacin preferred to inhibit E. coli and the bacterial population was 78% MRSA. However, Compound A-8 sensitizes trovafloxacin to MRSA.
As a proof of concept, the relative ratio of E. coli and MRSA (FIG. 23A) or B. subtilis and MRSA (FIG. 23 B) was measured with and without Compound A-8. […] However, when trovafloxacin (8 ng/ml) is supplied with 1.5 μg/ml of Compound A-8, MRSA inhibition was achieved and E. coli was the dominant species (89% of the bacteria population).

HEK293 cells = assay: Cytotoxicity in HEK293 cells (CCK-8, 24 h); format: cell-based; details: for HEK293 cytotoxicity at 100 μM ("100 μM result in x%"): NT=not toxic
Procedure: (§2) H9c2 (ATCC®R-1446™) cells Were used in the studies. The H9c2 cells were maintained in DMEM (Dulbeccoa's Modified Eagle's Medium) supplemented with 10% fetal bovine serum (Mid Sci; S01520HI) and 1% penicillin-streptomycin (Sigma-Aldrich; P4333) at 37° C. with 5% CO2. The H9c2 cells were seeded in 96-well plate one day before the experiment. Different concentrations of di-amidine compounds were added into the H9c2 cells. The cells were then incubated with the compounds for 24 h at 37° C. with 5% CO2. The cell viability was tested by the CCK-8. Specifically, after 24 h incubation, 10 μL CCK-8 was added to each well. After 3 h incubation at 37° C., the absorbance at 450 nm was recorded by a plate reader. The cytoxicity in HEK293 and 3T3 cells was measured using the same procedure. Data is shown in Table 5 (NT=not toxic; --=not tested).

H9c2 cells = assay: Cytotoxicity in H9c2 cells (CCK-8, 24 h); format: cell-based
Procedure: as §2

3T3 cells = assay: Cytotoxicity in 3T3 cells (CCK-8, 24 h); format: cell-based; details: for 3T3 cytotoxicity at 100 μM ("100 μM result in x%"): NT=not toxic
Procedure: as §2

[5] = antibiotic plus Compound C 5 μg/ml

Compound: Cc1cc(COc2ccc(C3=NCCN3)cc2)cc(COc2ccc(C3=NCCN3)cc2)c1 [Compound A-2, 2,2′-((((5-Methyl-1,3-phenylene)bis(methylene))bis(oxy))bis(4,1-phenylene))bis(4,5-dihydro-1H-imidazole) Dihydrochloride]
- Ability to sensitize Gram-negative bacteria (while preserving ability to sensitize some Gram-positive bacteria) (E. coli): greatly decrease, or even abolish
- B. subtilis growth inhibition, compound in combination with erythromycin vs erythromycin alone (B. subtilis): significant bacterial growth inhibition

Compound: Cc1cc(COc2ccc(C3=NCCCN3)cc2)cc(COc2ccc(C3=NCCCN3)cc2)c1 [Compound B-21, 2,2′-((((5-Methyl-1,3-phenylene)bis(methylene))bis(oxy))bis(4,1-phenylene))bis(1,4,5,6-tetrahydropyrimidine) dihydrochloride]
- Sensitization effect on B. subtilis (wild type B. subtilis [1]): no effect
- Ability to sensitize Gram-negative bacteria (while preserving ability to sensitize some Gram-positive bacteria) (E. coli): greatly decrease, or even abolish
- Sensitization fold, MRSA towards rifampicin (MRSA): 16 fold

Compound: Cc1cc(COc2ccc(CN)cc2)cc(COc2ccc(CN)cc2)c1 [Compound E-11, 1,3-Bis {(4-methanamine)-phenoxymethyl}-5-methylbenzene dihydrochloride]
- Sensitization fold, B. subtilis towards erythromycin (wild type B. subtilis [2]): 32 fold
- Sensitization effect on MRSA (MRSA; compound at 5 μg/ml): no effect

Compound: CCCNC(=N)c1ccc(COc2cc(C)cc(OCc3ccc(C(=N)NCCC)cc3)c2)cc1 [Compound E-13, 1,3-Bis {(4-n-propylamidino)-benzyloxy}-5-methylbenzene dihydrochloride]
- Sensitization effect on B. subtilis (wild type B. subtilis [1]): no effect
- Ability to sensitize Gram-negative bacteria (while preserving ability to sensitize some Gram-positive bacteria) (E. coli): greatly decrease, or even abolish
- Sensitization fold, MRSA towards rifampicin (MRSA): 16 fold

Compound: CCCCCc1cc(OCc2ccc(C(=N)N)cc2)cc(OCc2ccc(C(=N)N)cc2)c1 [Compound E-20, 1,3-Bis {(4-amidino)-benzyloxy}-5-(n-pentyl)benzene dihydrochloride]
- Binding to lipid A (decrease of Dansyl-PMBN fluorescent intensity) [3]: bind to lipid A

Compound: N[C@@H]1[C@H]2CN(c3nc4c(cc3F)c(=O)c(C(=O)O)cn4-c3ccc(F)cc3F)C[C@@H]12 [Trovafloxacin, trovafloxacin]
- MIC (wild-type E. coli; 24 h, antibiotic alone, wild-type E. coli, read-out: MIC of AB only): 0.05 µg/mL
- MIC (wild-type E. coli; antibiotic alone, wild-type E. coli, read-out: MIC of AB only): 0.05 µg/mL
- MIC (wild-type E. coli; read-out: MIC of AB with Compound C (5 μg/ml), antibiotic plus Compound C 5 μg/ml, wild-type E. coli): 0.0015 µg/mL
- FIC (wild-type E. coli; fractional inhibitory concentration, antibiotic plus Compound C 5 μg/ml, wild-type E. coli): 0.13
- MIC ([4]; Escherichia coli, antibiotic alone, read-out: MIC of AB only): 0.025 µg/mL
- Sensitization fold ([4]; MIC of antibiotic only / MIC with Compound C 5 μg/ml): 32
- FIC [4, 5]: 0.13
- MIC of AB with Compound C (5 μg/ml) [4, 5]: 0.0008 µg/mL
- MRSA share of the bacteria population (E. coli + MRSA) (E. coli and MRSA): 78%

Compound: N=C(N)c1ccc(OCc2cccc(COc3ccc(C(=N)N)cc3F)c2F)c(F)c1 [drawing 854]
- HEK293 CC^50 (HEK293 cells): 100 µM
- H9c2 CC^50 (H9c2 cells): 50 µM
- 3T3 cytotoxicity at 100 μM ("100 μM result in x%") (3T3 cells): 100 μM result in 30%

Compound: Cc1cc(COc2ccc(C(=N)N)cc2)cc(COc2ccc(C(=N)N)cc2)c1 [drawing 863]
- HEK293 cytotoxicity at 100 μM ("100 μM result in x%") (HEK293 cells): 100 μM result in 20%
- H9c2 CC^50 (H9c2 cells): 50 µM
- 3T3 cytotoxicity at 100 μM ("100 μM result in x%") (3T3 cells): 100 μM result in 20%

Compound: Cc1cc(COc2ccc(C3=NCCN3)cc2)cc(COc2ccc(C3=NCCN3)cc2)c1 [drawing 864]
- H9c2 CC^50 (H9c2 cells): 25 µM
- 3T3 CC^50 (3T3 cells): 25 µM

Compound: N=C(N)c1ccc(OCc2ccc(COc3ccc(C(=N)N)cc3)cc2)cc1 [drawing 869]
- HEK293 cytotoxicity at 100 μM ("100 μM result in x%") (HEK293 cells): 100 μM result in 30%
- H9c2 CC^50 (H9c2 cells): 50 µM
- 3T3 cytotoxicity at 100 μM ("100 μM result in x%") (3T3 cells): 100 result in 10%

Compound: COc1cc(C(=N)N)ccc1OCc1cc(C)cc(COc2ccc(C(=N)N)cc2OC)c1 [drawing 871]
- HEK293 cytotoxicity at 100 μM ("100 μM result in x%") (HEK293 cells): 100 μM result in 10%

Compound: Cc1cc(COc2ccc(CN)cc2)cc(COc2ccc(CN)cc2)c1 [drawing 874]
- HEK293 CC^50 (HEK293 cells): 25 µM
- 3T3 CC^50 (3T3 cells): 25 µM

Compound: N=C(N)c1ccc(OCc2cc(COc3ccc(C(=N)N)cc3)cc(COc3ccc(C(=N)N)cc3)c2)cc1 [drawing 875]
- HEK293 cytotoxicity at 100 μM ("100 μM result in x%") (HEK293 cells): 100 μM result in 10%

Compound: Cc1cc(CCc2ccc(C(=N)N)cc2)cc(CCc2ccc(C(=N)N)cc2)c1 [drawing 876]
- HEK293 CC^50 (HEK293 cells): 50 µM
- 3T3 CC^50 (3T3 cells): 50 µM

Compound: Cc1cc(OCc2ccc(C(=N)N)cc2)cc(OCc2ccc(C(=N)N)cc2)c1 [drawing 877]
- 3T3 cytotoxicity at 100 μM ("100 μM result in x%") (3T3 cells): 100 UM result in 10%

Compound: COc1cc(C(=N)N)ccc1OCc1cc(COc2ccc(C(=N)N)cc2OC)cc(C(C)(C)C)c1 [drawing 882]
- HEK293 cytotoxicity at 100 μM ("100 μM result in x%") (HEK293 cells): 100 μM result in 20%

Compound: Cc1cc(COc2cccc(C(=N)N)c2)cc(COc2cccc(C(=N)N)c2)c1 [drawing 884]
- HEK293 cytotoxicity at 100 μM ("100 μM result in x%") (HEK293 cells): 100 μM result in 20%
